US7928060B2, “Amylin family polypeptide-6 (AFP-6) analogs and methods of making and using them” (Amylin Pharmaceuticals, Inc., priority 2004, dated 2011)
Bridge positions count the residues as written; N and C are the ends. Ends that are not written are not given here. Peptide text beside a SMILES is read from it.

Experiments:
[1] = molecular target: adrenomedullin receptor (Homo sapiens, UniProt O60895+Q16602); test: adrenomedullin (ADM) receptor binding assay; conditions: Table 6
[2] = molecular target: T1, amylin receptors (Rattus norvegicus, UniProt P32214); test: amylin radioligand binding assay (125I-rat amylin, nucleus accumbens membranes); conditions: Table 6; read-out: Amylin receptor binding
T1 construct: This basal forebrain tissue, containing the nucleus accumbens and surrounding regions, was weighed and homogenized; from tissue; host or cells: rat basal forebrain (nucleus accumbens) membranes, male Sprague-Dawley rats
T1 sequence (P32214 25-516): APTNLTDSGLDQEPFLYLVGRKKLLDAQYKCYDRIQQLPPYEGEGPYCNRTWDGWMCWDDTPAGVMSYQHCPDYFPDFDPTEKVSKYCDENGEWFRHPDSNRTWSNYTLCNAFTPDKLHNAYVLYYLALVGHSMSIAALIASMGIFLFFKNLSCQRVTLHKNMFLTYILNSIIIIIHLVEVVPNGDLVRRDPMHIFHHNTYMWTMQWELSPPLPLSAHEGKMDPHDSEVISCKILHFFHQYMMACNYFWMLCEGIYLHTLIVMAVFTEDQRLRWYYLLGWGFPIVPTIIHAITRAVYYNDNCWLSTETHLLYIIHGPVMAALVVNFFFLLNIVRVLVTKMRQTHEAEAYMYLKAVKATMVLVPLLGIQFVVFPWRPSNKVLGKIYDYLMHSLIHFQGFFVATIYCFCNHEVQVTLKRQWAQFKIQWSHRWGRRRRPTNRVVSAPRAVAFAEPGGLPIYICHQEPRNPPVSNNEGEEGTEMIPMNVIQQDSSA
Experimental: Unlabeled peptides were obtained from BACHEM Inc. (Torrance, Calif.).
Male Sprague-Dawley® rats (200-250) grams were sacrificed by decapitation. Brains were removed and place in cold phosphate-buffered saline (PBS). From the ventral surface, cuts were made rostral to the hypothalamus, bounded laterally by the olfactory tracts and extending at a 45° angle medially from these tracts. […] Membranes were washed three times in fresh buffer by centrifugation for 15 minutes at 48,000×g. The final membrane pellet was resuspended in 20 mM HEPES buffer containing 0.2 mM phenylmethylsulfonyl fluoride (PMSF).
Solutions were incubated for 60 minutes at 2 C. […] Filters were washed immediately before filtration with 5 ml cold PBS, and immediately after filtration with 15 ml cold PBS. […] Competition curves were generated by measuring binding in the presence of 10^−12 to 10^−6 M unlabeled test compound and were analyzed by nonlinear regression using a 4-parameter logistic equation (INPLOT program; […] Software, San Diego, Calif.).

[3] = molecular target: T2, CGRP receptors (Homo sapiens, UniProt O60894+Q16602); test: CGRP radioligand binding assay (125I-hCGRP, SK-N-MC cell membranes); conditions: Table 6
T2 construct: membranes prepared from SK-N-MC cells, known to express CGRP receptors; endogenous in cells; host or cells: SK-N-MC cell membranes
T2 sequence (Q16602 23-461): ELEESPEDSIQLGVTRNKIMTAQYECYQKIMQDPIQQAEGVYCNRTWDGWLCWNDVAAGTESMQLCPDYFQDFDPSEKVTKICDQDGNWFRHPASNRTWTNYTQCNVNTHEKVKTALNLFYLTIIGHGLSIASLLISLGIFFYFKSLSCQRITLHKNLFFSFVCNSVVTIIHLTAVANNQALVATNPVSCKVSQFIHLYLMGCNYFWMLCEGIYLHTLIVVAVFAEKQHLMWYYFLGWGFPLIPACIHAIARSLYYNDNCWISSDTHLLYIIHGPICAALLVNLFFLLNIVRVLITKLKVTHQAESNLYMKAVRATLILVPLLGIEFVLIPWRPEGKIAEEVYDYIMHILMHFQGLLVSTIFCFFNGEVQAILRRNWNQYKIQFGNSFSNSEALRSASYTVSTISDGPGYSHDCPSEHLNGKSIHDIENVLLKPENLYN
T2 sequence (O60894 27-148): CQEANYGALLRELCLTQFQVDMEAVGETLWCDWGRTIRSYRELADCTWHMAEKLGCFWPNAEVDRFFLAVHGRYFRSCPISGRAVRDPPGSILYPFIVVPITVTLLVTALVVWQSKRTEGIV

[4] = molecular target: T3, calcitonin receptor (Rattus norvegicus, UniProt P32214); test: calcitonin receptor binding assay (rCalcitonin RBA); conditions: Table 6; read-out: CT receptor binding
T3 sequence (P32214 25-516): T1 sequence (P32214 25-516)

[5] = system: NIH/Swiss mice; test: acute food intake assay in overnight-fasted mice, IP injection; type: in vivo, mouse
Experimental: The effect of AFP-6 on food intake was investigated using an acute food intake assay. This assay measured food consumption in lean, group-housed, overnight-fasted NIH/Swiss mice. 12 mice were housed 3 to a cage. The sample compound, in this case AFP-6, was injected IP in mice and food intake was measured during the next 2-hours. Decreased, as well as increased, food intake can be measured. Testing various doses of the compound generated ED50's. The assay was performed as follows: 1. Remove food (water ad libitum) at 5:00 pm the evening before the study. 2. Weigh food pellets (3 pellets/cage). 3. Inject animals intraperitoneally with 200 ul of appropriate solution, t=0. 4. Immediately add pre-weighed food to each cage (away from water bottle spout) and allow animals to feed undisturbed. 5. At 30, 60, and 120 minutes, collect and weigh food. 6. Analyze data. Data points represent mean ±sd of n=12.
Twelve mice were injected IP at t=0 for each dose, 0.3, 1, 3, 10, 30, 100, or 300 nmol/kg of AFP-6 (Amylin Pharmaceuticals, Inc.) (n=12/group). Food was introduced immediately after injection and amount consumed measured at t=30, 60, and 120 min.

adrenomedullin receptor, sequence (Q16602 23-461): as the sequence (Q16602 23-461) above
adrenomedullin receptor, sequence (O60895 43-175): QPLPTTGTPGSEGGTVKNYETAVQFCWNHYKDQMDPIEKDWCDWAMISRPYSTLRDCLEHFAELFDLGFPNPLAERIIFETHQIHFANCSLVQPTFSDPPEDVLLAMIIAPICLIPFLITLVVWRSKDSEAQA

Compound	IC50 [1] [µM]	IC50 [2] [µM]	IC50 [3] [µM]	IC50 [4] [µM]	inhibition of food intake ([5]; 0.63 mg/kg, mice, not significant) [%]	FI 30 min ED50 ([5]; food intake, 30 min) [nmol/kg]	FI 60 min ED50 ([5]; food intake, 60 min) [nmol/kg]
H-VGMVLGTMQVQNLSHRLWQLRQDSAPVDPSSPHSY-NH2 [compound 27]	≥ 1	> 1	> 1	> 1			
Rat calcitonin: rat calcitonin, reference peptide in the food intake assay (CGNLSTCMLGTYTQDLNKFHTFPQTSIGVGAP; ends and bridges not checked; cysteine pairing not given here; UniProt P01257 85-116, looked up)					16		
CC(C)C[C@H](NC(=O)[C@H](CCC(N)=O)NC(=O)[C@H](Cc1c[nH]c2ccccc12)NC(=O)[C@H](CC(C)C)NC(=O)[C@H](CCCNC(=N)N)NC(=O)[C@H](Cc1c[nH]cn1)NC(=O)[C@H](CO)NC(=O)[C@H](CC(C)C)NC(=O)[C@H](CC(N)=O)NC(=O)[C@H](CCC(N)=O)NC(=O)[C@@H](NC(=O)[C@H](CCC(N)=O)NC(=O)[C@@H]1CSSC[C@H](NC(=O)[C@@H](N)C(C)C)C(=O)N[C@@H](CC(N)=O)C(=O)N[C@@H]([C@@H](C)O)C(=O)N[C@@H](C)C(=O)N[C@@H]([C@@H](C)O)C(=O)N1)C(C)C)C(=O)N[C@@H](CCCNC(=N)N)C(=O)N[C@@H](CCC(N)=O)C(=O)N[C@@H](CC(=O)O)C(=O)N[C@@H](CO)C(=O)N[C@@H](C)C(=O)N1CCC[C@H]1C(=O)N[C@H](C(=O)N[C@@H](CC(=O)O)C(=O)N1CCC[C@H]1C(=O)N[C@@H](CO)C(=O)N[C@@H](CO)C(=O)N1CCC[C@H]1C(=O)N[C@@H](Cc1c[nH]cn1)C(=O)N[C@@H](CO)C(=O)N[C@@H](Cc1ccc(O)cc1)C(N)=O)C(C)C [compound 30] (H-VCNTATCQVQNLSHRLWQLRQDSAPVDPSSPHSY-NH2; disulfide 2-7 (inferred))	≥ 1		0.037	0.128			
H-RVGCGNLSTCQVQNLSHRLWQLMGPAGRQDSAPVDPSSPHSY-NH2 (disulfide 4-10 (inferred)) [compound 22]	0.019	0.0024	0.035	0.0073			
VQNLSHRLWQLMGPAGRQDSAPVDPSSPHSY-NH2 [compound 14]	0.059	> 1	> 1	> 1			
r/h Adrenomedullin: Amylin Family polypeptide of Table 3; r/h not resolved per value						18	13
CC(C)C[C@H](NC(=O)[C@H](CCC(N)=O)NC(=O)[C@H](Cc1c[nH]c2ccccc12)NC(=O)[C@H](CC(C)C)NC(=O)[C@H](CCCNC(=N)N)NC(=O)[C@H](Cc1c[nH]cn1)NC(=O)[C@H](CO)NC(=O)[C@H](CC(C)C)NC(=O)[C@H](CC(N)=O)NC(=O)[C@H](CCC(N)=O)NC(=O)[C@@H](NC(=O)[C@H](CCC(N)=O)NC(=O)[C@@H]1CSSC[C@H](NC(=O)CN)C(=O)N[C@@H](CC(N)=O)C(=O)N[C@@H]([C@@H](C)O)C(=O)N[C@@H](C)C(=O)N[C@@H]([C@@H](C)O)C(=O)N1)C(C)C)C(=O)N[C@@H](CCCNC(=N)N)C(=O)N[C@@H](CCC(N)=O)C(=O)N[C@@H](CC(=O)O)C(=O)N[C@@H](CO)C(=O)N[C@@H](C)C(=O)N1CCC[C@H]1C(=O)N[C@H](C(=O)N[C@@H](CC(=O)O)C(=O)N1CCC[C@H]1C(=O)N[C@@H](CO)C(=O)N[C@@H](CO)C(=O)N1CCC[C@H]1C(=O)N[C@@H](Cc1c[nH]cn1)C(=O)N[C@@H](CO)C(=O)N[C@@H](Cc1ccc(O)cc1)C(N)=O)C(C)C [compound 31] (H-GCNTATCQVQNLSHRLWQLRQDSAPVDPSSPHSY-NH2; disulfide 2-7 (inferred); N-terminus assumed)	≥ 1	0.012	0.018	0.051			

Now from value to compound, other results behind:

IC50 [1] [µM]	IC50 [2] [µM]	IC50 [3] [µM]	IC50 [4] [µM]	Compound	inhibition of food intake ([5]; 0.63 mg/kg, mice, not significant) [%]	FI 30 min ED50 ([5]; food intake, 30 min) [nmol/kg]	FI 60 min ED50 ([5]; food intake, 60 min) [nmol/kg]
≥ 1	> 1	> 1	> 1	CC(C)C[C@H](NC(=O)[C@H](CCC(N)=O)NC(=O)[C@H](Cc1c[nH]c2ccccc12)NC(=O)[C@H](CC(C)C)NC(=O)[C@H](CCCNC(=N)N)NC(=O)[C@H](Cc1c[nH]cn1)NC(=O)[C@H](CO)NC(=O)[C@H](CC(C)C)NC(=O)[C@H](CC(N)=O)NC(=O)[C@H](CCC(N)=O)NC(=O)[C@@H](NC(=O)[C@H](CCC(N)=O)NC(=O)[C@@H]1CSSC[C@H](NC(=O)CN)C(=O)N[C@@H](C(C)C)C(=O)N[C@@H](CC(C)C)C(=O)NCC(=O)N[C@@H]([C@@H](C)O)C(=O)N1)C(C)C)C(=O)N[C@@H](CCCNC(=N)N)C(=O)N[C@@H](CCC(N)=O)C(=O)N[C@@H](CCC(=O)O)C(=O)N[C@@H](CO)C(=O)N[C@@H](C)C(=O)N1CCC[C@H]1C(=O)N[C@H](C(=O)N[C@@H](CCC(=O)O)C(=O)N1CCC[C@H]1C(=O)N[C@@H](CO)C(=O)N[C@@H](CO)C(=O)N1CCC[C@H]1C(=O)N[C@@H](Cc1c[nH]cn1)C(=O)N[C@@H](CO)C(=O)N[C@@H](Cc1ccc(O)cc1)C(N)=O)C(C)C [compound 40] (H-GCVLGTCQVQNLSHRLWQLRQESAPVEPSSPHSY-NH2; disulfide 2-7)			
≥ 1	0.039		0.198	CC(C)C[C@H](NC(=O)[C@H](CCC(N)=O)NC(=O)[C@H](Cc1c[nH]c2ccccc12)NC(=O)[C@H](CC(C)C)NC(=O)[C@H](CCCNC(=N)N)NC(=O)[C@H](Cc1c[nH]cn1)NC(=O)[C@H](CO)NC(=O)[C@H](CC(C)C)NC(=O)[C@H](CC(N)=O)NC(=O)[C@H](CCC(N)=O)NC(=O)[C@@H](NC(=O)[C@H](CCC(N)=O)NC(=O)[C@@H]1CSSC[C@H](NC(=O)CNC(=O)[C@@H](N)C(C)C)C(=O)N[C@@H](C(C)C)C(=O)N[C@@H](CC(C)C)C(=O)NCC(=O)N[C@@H]([C@@H](C)O)C(=O)N1)C(C)C)C(=O)N[C@@H](CCCNC(=N)N)C(=O)N[C@@H](CCC(N)=O)C(=O)N[C@@H](CC(=O)O)C(=O)N[C@@H](CO)C(=O)N[C@@H](C)C(=O)N1CCC[C@H]1C(=O)N[C@H](C(=O)N[C@@H](CCC(=O)O)C(=O)N1CCC[C@H]1C(=O)N[C@@H](CO)C(=O)N[C@@H](CO)C(=O)N1CCC[C@H]1C(=O)N[C@@H](Cc1c[nH]cn1)C(=O)N[C@@H](CO)C(=O)N[C@@H](Cc1ccc(O)cc1)C(N)=O)C(C)C [compound 36] (H-VGCVLGTCQVQNLSHRLWQLRQDSAPVEPSSPHSY-NH2; disulfide 3-8 (inferred))			
≥ 1		> 1	0.031	CC(C)C[C@@H]1NC(=O)[C@H](CC(N)=O)NC(=O)CNC(=O)[C@@H](NC(=O)CN)CSSC[C@@H](C(=O)N[C@@H](CCC(N)=O)C(=O)N[C@H](C(=O)N[C@@H](CCC(N)=O)C(=O)N[C@@H](CC(N)=O)C(=O)N[C@@H](CC(C)C)C(=O)N[C@@H](CO)C(=O)N[C@@H](Cc2c[nH]cn2)C(=O)N[C@@H](CCCNC(=N)N)C(=O)N[C@@H](CC(C)C)C(=O)N[C@@H](Cc2c[nH]c3ccccc23)C(=O)N[C@@H](CCC(N)=O)C(=O)N[C@@H](CC(C)C)C(=O)N[C@@H](CCCNC(=N)N)C(=O)N[C@@H](CCC(N)=O)C(=O)N[C@@H](CC(=O)O)C(=O)N[C@@H](CO)C(=O)N[C@@H](C)C(=O)N2CCC[C@H]2C(=O)N[C@H](C(=O)N[C@@H](CCC(=O)O)C(=O)N2CCC[C@H]2C(=O)N[C@@H](CO)C(=O)N[C@@H](CO)C(=O)N2CCC[C@H]2C(=O)N[C@@H](Cc2c[nH]cn2)C(=O)N[C@@H](CO)C(=O)N[C@@H](Cc2ccc(O)cc2)C(N)=O)C(C)C)C(C)C)NC(=O)[C@H]([C@@H](C)O)NC(=O)[C@H](CO)NC1=O [compound 39] (H-GCGNLSTCQVQNLSHRLWQLRQDSAPVEPSSPHSY-NH2; disulfide 2-8 (inferred); N-terminus assumed)			
